Experimental data reported in patent US20230270692A1, “COMPOUNDS FOR CHRONIC DISORDERS” (Pillai Universal LLC, priority 2020, published 2023).
Where two headings read alike, the source gives them in different places.

Key:
[1] = test system: panel of human normal cell lines; experiment: MTT cytotoxicity of anticancer agents on normal cell lines, alone and with Compound I; details: combination treatment
Description: The cytotoxicity of anticancer agents was studied using a panel of human normal cell lines alone and with the combination of Compound I of the present invention. The cytotoxicity effect was determined by MTT assay. The following cell lines were used: Human epidermal keratinocytes cells (HaCaT), Human dermal fibroblast (HDF), Human bone marrow mesenchymal stem cells (HBMSCs), Human normal hepatocytes cells (THLE2), Human cardiac cells (AC-16), Human intestinal epithelial cells (HIEC-6), Human neuronal cells (SHSY-5Y), Human vascular Endothelial cells (HuVECs), Human lung epithelial cells (Calu-3), Human lung fibroblast (MRC 5).
Next, the cells were treated with anticancer agents in combination with Compound I of the present invention.

[2] = Reduction of hydroxychloroquine side effects; details: treatment of COVID-19
Description: Coronavirus disease (COVID-19) is an infectious disease caused by virus SARS-CoV-2. The disease causes respiratory illness with symptoms such as a cough, fever, and in more severe cases, difficulty breathing. At present, one drug that may be effective in treating COVID-19 is hydroxychloroquine. However the drug hydroxychloroquine causes serious side effects including cardiovascular diseases, eye damage, mild or severe bronchospasm, and also affects mental health. The effect of Compound I of the present invention in reducing the side effects associated with hydroxychloroquine was studied according to methods known in the art.

cancer stem cells = experiment: Cancer stem cell marker expression; assay type: cell-based
Description: CSCs have significant impact on the tumor progression, drug resistance, recurrence and metastasis in different types of malignancies. Conventional cancer chemotherapy often fails as most anti-cancer drugs are not effective against drug-resistant CSCs. These surviving CSCs lead to relapse and metastasis. Most studies report that conventional therapeutic agents have limited access to the CSCs due to their hypoxic microenvironment and distant location from the vasculature that retards the efficacy of anti-CSC drugs (FIG. 14). However, the disclosed compounds may overcome this limitation and may penetrate into a deeper location and destroy CSCs. Accordingly, in embodiments, the present invention provides a method of inhibiting cancer stem cell survival and/or self-renewal comprising administering to a cancer stem cell an effective amount of a compound disclosed herein, e.g., Compound I (FIG. 13).
The compounds of the disclosure inhibited the expression of the genes in the follow cancers (FIG. 18): • Breast: CD44+CD24−/low Lineage−, ALDH-1high • Liver: CD133+, CD49f+, CD90+ • Colon: CD133+, CD44+, CD166+, EpCAM+, CD24+ • Pancreatic: CD133+, CD44+, EpCAM+, CD24+ • Leukemia: CD34+CD38− • Lungs: CD133+, ABCG2^High • Leukemia: CD34+, CD38−, HLA−, DR−, CD71−, CD90−, CD117−, CD123+
Reduction of stem cell surface marker expressions are seen within 1 hour and up to a maximum of […]. […]

[3] = test system: Class I HDAC (HDAC1, HDAC2, HDAC3, HDAC8); experiment: Class I HDAC expression/inhibition by western blotting in PANC cells; assay type: cell-based, Human
Description: (§1) Class I HDAC expression during pancreatic tumorigenesis was next examined. Briefly different concentration of Compound I were added and incubated for 24 h. […] Inhibition of Class I HDACs is associated with the upregulation of histone H3 acetylation and p21 mRNA and protein expression which have associated with the anti-proliferative activity. It has also been reported that HDAC6 functions as a α-tubulin deacetylase, modulating tubulin stability. Because α-tubulin and histone H3 are mutual downstream targets of HDACs, the relationship between protein expression and function of molecules was further examined. The effects of Compound I on histone H3 acetylation in PANC cells using western blot analysis was studied.

lung cancer stem cells = experiment: Targeting lung cancer stem cells
Description: Compound I is orally bioavailable, multi-tyrosine-kinase inhibitor with 120 target proteins that induces apoptosis and suppresses the invasiveness of lung cancer stem cells with no toxicity to normal cells. There were no signs of discomfort or any cardiovascular or respiratory disorders observed in animals after the administration throughout the study period.

SARS-CoV-2 = assay type: cell-based
[4] = test system: histone H3 acetylation, acetyl-α-tubulin; experiment: Histone H3 / α-tubulin acetylation western blot in PANC cells; assay type: cell-based, Human
Description: as §1

HUMSCs = experiment: Neuronal differentiation of human umbilical cord stem cells; assay type: cell-based
Description: After treatment at 72 h, the ratio of neuron-like cells reached high, with the cell bodies contracted and the protuberances lengthened further. The MSCs retained this morphology for the duration of the induction.

[5] = Acute oral toxicity (OECD 423); assay type: in vivo
Description: Experimental Design: The assay of acute toxicity was performed according to the Organization for Economic Cooperation and Development (OECD) guideline 423 (OECD, 2001a). A total of 60 mice weighing between 27 and 37 g were randomly divided into six experimental groups of 10 mice each (5 males and 5 females per group). After fasting overnight Compound I was administered to each treatment group at single doses of 200, 500 1000, 2000, mg/kg, respectively, by oral gavage. The control groups were treated with the same volume of distilled water. After dosing, all animals were observed individually for mortality and changes in general behavior during the first 30 min, then at 2, 4, 6, 10 and 24 h following treatment. Symptoms of toxicity such as hypo-activity, piloerection, breathing difficulty, tremors, and convulsion were evaluated after administration of the various doses. The LD 50 value was determined according to the method described by the OECD Guidelines 423 (OECD, 2001a). During the remaining experimental period, the animal observation was performed at least once per day for the post-dosing period of 14 days. Body weights were measured at the initiation of treatment, and on days 4, 7, 11 and 14 after administration. On the 14th day, the mice were sacrificed under anesthesia, and vital organs (heart, kidneys, lung, spleen and liver) were removed for macroscopic examination.

PANC-1 xenograft = PANC-1 xenograft mouse model; assay type: in vivo
Description: Study Design: A PANC-1 xenograft mouse model was carried out according to the experimental design described in FIG. 21A. Tumor volume was monitored over a 30-day period upon administration of PBS alone (vehicle control), 25 mg/kg gemcitabine, and 10 mg/kg Compound I.

COc1cc(/C=C/C(=O)/C=C/C=C/c2cc(OC)c(O)c(OC)c2)cc(OC)c1 [Compound I]
effect on toxicity induced by anticancer agents in normal cells [1]: reduces the toxic effect induced by anticancer agents
effect on hydroxychloroquine side effects [2]: assists in potentiating hydroxychloroquine by reducing the side effects
cancer stem cell markers / gene expression (cancer stem cells): inhibition
protein expression of Class I HDAC ([3]; 24 h, western blotting, vs control p<0.05): decreased in a dose-dependent manner
inhibition of HDAC1, HDAC2, HDAC3 and HDAC8 ([3]; PANC cells): significantly inhibited
effect on lung cancer stem cells (lung cancer stem cells): induces apoptosis and inhibits metastasis without harming the normal cells
inhibition (SARS-CoV-2; 1 μM added after 10 h post infection): no inhibition
inhibition (SARS-CoV-2; 1 μM added between 6 and 8 h post infection): Less inhibition
inhibition (SARS-CoV-2; 1 μM added between 2 h pre-infection and 2-h post infection): Maximal inhibition
viral RNA levels (qPCR) (SARS-CoV-2; increasing concentrations): decreased
acetyl-α-tubulin [4]: no acetyl-α-tubulin was detected
histone H3 acetylation ([4]; compared with control): stronger hyperacetylation
Neuronal cell type formation (HUMSCs): induced
treatment related death ([5]; acute, 14-day observation, both sexes): no treatment related death was observed
LD50 at 14 days ([5]; both sexes, mouse, in vivo, oral, read-out: median lethal dose (LD50)): > 2000 mg/kg
GHS classification ([5]; both, mouse, in vivo, 14 days): Category 5
imaging studies (PANC-1 xenograft; 10 mg/kg): no detectable tumor
tumor volume (PANC-1 xenograft; day 5 to day 30, 25 mg/kg gemcitabine, 10 mg/kg Compound I): decrease
survival (PANC-1 xenograft; mouse, in vivo): improved survival
